14 molecules from US11046709B2, “Fused 1,4-diazepines as BET bromodomain inhibitors” (THE REGENTS OF THE UNIVERSITY OF MICHIGAN, priority 2017, dated 2021) can be followed below.

A short description of data set [1]: Plasma exposure after oral gavage in mice, LC-MS/MS. Format: in vivo. The settings on record: mouse, in vivo, po, 25 mg/kg. As to the method:
For a number of representative compounds in Table 5, their plasma exposures with oral administration in mice via oral gavage were determined by LC-MS/MS, with the data shown in Table 9.

For data set [2], the system named is MOLM-13. The experiment in a line: Cell growth inhibition, 4-day proliferation assay, MOLM-13. Format: cell-based. The settings on record: Homo sapiens.
For data set [3], the system named is MDA-MB-231. The data set is described as follows: Cell growth inhibition, 4-day proliferation assay, MDA-MB-231. Format: cell-based. The settings on record: Homo sapiens. The gist of the method: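 Cells seeded at 3,000-10,000/well, treated with serially diluted compounds 4 days at 37 °C, 5% CO2. Viability by WST-8 (10% v/v, 1-2 h, A450); readings normalized to DMSO-treated cells, IC50 by four-parameter nonlinear regression.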

Data set [4] concerns the target T1, recombinant BRD4 BD2 (Homo sapiens, UniProt O60885).
T1 construct: for recombinant BRD4 BD1 and BRD4 BD2 proteins
The experiment in a line: Competitive fluorescence-polarization (FP) binding assay, BRD4 BD2. As to the method: Fluorescence Polarization (FP) competitive binding studies were carried out using a FAM labeled fluorescent probe, see, e.g., Cpd. No. 350 of US 2014/0256706, to determine binding affinities of representative Compounds of the Disclosure for recombinant BRD4 BD1 and BRD4 BD2 proteins. Equilibrium dissociation constants (Kd) values of the fluorescent probe to BRD4 BD1 and BD2 proteins were determined from protein saturation experiments by monitoring the total fluorescence polarization of mixtures composed with the fluorescent probe at a fixed concentration and proteins with increasing concentrations up to full saturation. Serial dilutions of testing proteins were mixed with the fluorescent probe to a final volume of 200 μl in the assay buffer (100 mM phosphate buffer, pH=6.5, 0.01% Triton X-100 (Sigma, 282103) being added right before assays). Final fluorescent probe concentration was 1.5 nM for both proteins. Plates were incubated at room temperature for 30 minutes with gentle shaking to assure equilibrium. FP values in millipolarization units (mP) were measured using the Infinite M-1000 plate reader (Tecan U.S., Research Triangle Park, N.C.) in Microfluor 1 96-well, black, round-bottom plates (Thermo Scientific, Waltham, Mass.) at an excitation wavelength of 485 nm and an emission wavelength of 530 nm. Kd values of the fluorescent probe, which were calculated by fitting the sigmoidal dose-dependent FP increases as a function of protein concentrations using Graphpad Prism 6.0 software (Graphpad Software, San Diego, Calif.), are 5.5 and 3.0 nM to BDR4 BD1 and 2, respectively.
The IC50 and Ki values of compounds were determined in a competitive binding experiment. See US 2014/0256706. Mixtures of 10 μl of the tested compounds in assay buffer with 40% Ethylene Glycol and 190 μl of preincubated protein/probe complex solution in the assay buffer (100 mM potassium phosphate, pH 6.5, 0.01% Triton X-100) were added into assay plates which were incubated at room temperature for 30 minutes with gentle shaking. Final concentrations of proteins were 10 and 6 nM in assays for BRD4 BD1 and BD2, respectively. Final probe concentration is 1.5 nM in both assays. Negative controls containing protein/probe complex only (equivalent to 0% inhibition), and positive controls containing only free probes (equivalent to 100% inhibition), were included in each assay plate. FP values were measured as described above. IC50 values were determined by nonlinear regression fitting of the competition curves. Instead of being calculated from IC50 values as described before. Ki values of competitive inhibitors were obtained directly by nonlinear regression fitting as well, based upon the Kd values of the probe to different proteins, and concentrations of the proteins and probes in the competitive assays (US 2014/0256706; Wang, FEBS Lett. 360:111 (1995); Zhang et al., Analytical Biochemistry, 331:138 (2004)).
Representative compounds in Table 5 were evaluated for their binding affinities to BRD4 BD1 and BD2 proteins using the Competitive Fluorescence-Polarization (FP) Assays described in Example 6, with the data included in Table 6.

[5] abbreviates: MOLM-13, WST-8 assay, Table 7, read-out: Cell growth inhibition (IC50 (nM)) MOLM-13.
Setting [6] is: MDA-MB-231, WST-8 assay, Table 7, read-out: Cell growth inhibition (IC50 (nM)) MDA-MB-231.
Setting [7] is: MOLM-13, 96 h, read-out: Cell IC50 (nM) MOLM13.
[8] abbreviates: MDA-MB-231, 96 h, read-out: Cell IC50 (nM) MDA-MB-231.

Where two headings read alike, the source gives them in different places.

With `Cc1nnc(C[C@@H]2N=C(c3ccc(Cl)cc3)c3c(sc(C#CC4(C)COC4)c3C)-n3c(C)nnc32)o1` [Compound 149, (S)-2-((4-(4-chlorophenyl)-3,9-dimethyl-2-((3-methyloxetan-3-yl)ethynyl)-6H-thieno[3,2-f][1,2,4]triazolo[4,3-a][1,4]diazepin-6-yl)methyl)-5-methyl-1,3,4-oxadiazole], in data set [1], the concentration at 1 h stood at 13000 ng/mL, the concentration at 3 h came to 12800 ng/mL and the concentration at 6 h was 6640 ng/mL.

With `Cc1nnc(C[C@@H]2N=C(c3ccc(Cl)cc3)c3c(sc(C#CC4CCOCC4)c3C)-n3c(C)nnc32)s1` [Compound 151, (S)-4-(4-chlorophenyl)-3,9-dimethyl-6-((5-methyl-1,3,4-thiadiazol-2-yl)methyl)-2-((tetrahydro-2H-pyran-4-yl)ethynyl)-6H-thieno[3,2-f][1,2,4]triazolo[4,3-a][1,4]diazepine], the IC50 in data set [2] (setting [5]) was determined as 81.6 nM. In data set [1], the concentration at 1 h was determined as 451 ng/mL, the concentration at 3 h is 299 ng/mL and the concentration at 6 h was determined as 115 ng/mL.

In the case of `Cc1c(C#CC2CCOCC2)sc2c1C(c1ccc(Cl)cc1)=N[C@@H](CC(N)=O)c1nnc(C)n1-2` [Compound 152, (S)-2-(4-(4-chlorophenyl)-3,9-dimethyl-2-((tetrahydro-2H-pyran-4-yl)ethynyl)-6H-thieno[3,2-f][1,2,4]triazolo[4,3-a][1,4]diazepin-6-yl)acetamide], in data set [2] (setting [5]), the IC50 turned out to be 30 nM. Besides, in data set [1], the concentration at 1 h came out at 1120 ng/mL, the concentration at 3 h is 472 ng/mL and the concentration at 6 h amounted to 231 ng/mL.

With `Cc1c(C#CC2CCOCC2)sc2c1C(c1ccc(Cl)cc1)=N[C@@H](CC(=O)N1CCOCC1)c1nnc(C)n1-2` [Compound 154, (S)-2-(4-(4-chlorophenyl)-3,9-dimethyl-2-((tetrahydro-2H-pyran-4-yl)ethynyl)-6H-thieno[3,2-f][1,2,4]triazolo[4,3-a][1,4]diazepin-6-yl)-1-morpholinoethan-1-one], the IC50 in data set [2] (setting [5]) stood at 38.8 nM. In data set [1], the concentration at 1 h was 1040 ng/mL, the concentration at 3 h was 372 ng/mL and the concentration at 6 h amounted to 220 ng/mL.

As for `Cc1c(C#CC2CCOCC2)sc2c1C(c1ccc(Cl)cc1)=N[C@@H](CC(=O)Nc1ccc(O)cc1)c1nnc(C)n1-2` [Compound 155, (S)-2-(4-(4-chlorophenyl)-3,9-dimethyl-2-((tetrahydro-2H-pyran-4-yl)ethynyl)-6H-thieno[3,2-f][1,2,4]triazolo[4,3-a][1,4]diazepin-6-yl)-N-(4-hydroxyphenyl)acetamide], the IC50 in data set [2] (setting [5]) came out at 69.3 nM. In data set [1], this molecule returned a concentration at 1 h of 832 ng/mL, a concentration at 3 h of 127 ng/mL and a concentration at 6 h of 42 ng/mL.

In the case of `Cc1c(C#CC2CCOCC2)sc2c1C(c1ccc(Cl)cc1)=N[C@@H](CC(=O)N1CC(F)(F)C1)c1nnc(C)n1-2` [Compound 156, (S)-2-(4-(4-chlorophenyl)-3,9-dimethyl-2-((tetrahydro-2H-pyran-4-yl)ethynyl)-6H-thieno[3,2-f][1,2,4]triazolo[4,3-a][1,4]diazepin-6-yl)-1-(3,3-difluoroazetidin-1-yl)ethan-1-one], the IC50 in data set [2] (setting [5]) was 36.1 nM. For the same molecule, in data set [1], the concentration at 1 h stood at 805 ng/mL, the concentration at 3 h amounted to 473 ng/mL and the concentration at 6 h came out at 226 ng/mL.

In the case of `Cc1c(C#Cc2cnn(C)c2)sc2c1C(c1ccc(Cl)cc1)=N[C@@H](CC(N)=O)c1nnc(C)n1-2` [Compound 166, (S)-2-(4-(4-chlorophenyl)-3,9-dimethyl-2-((1-methyl-1H-pyrazol-4-yl)ethynyl)-6H-thieno[3,2-f][1,2,4]triazolo[4,3-a][1,4]diazepin-6-yl)acetamide], in data set [2] (setting [5]), the IC50 worked out at 28.9 nM. In addition, in data set [3] (setting [6]), the IC50 worked out at 214 ± 42.2 nM. Further, in data set [1], the concentration at 1 h was determined as 55 ng/mL, the concentration at 3 h is 30 ng/mL and the concentration at 6 h is under 1 ng/mL.

On to `CCNC(=O)C[C@@H]1N=C(c2ccc(Cl)cc2)c2c(sc(C#Cc3cnn(C)c3)c2C)-n2c(C)nnc21` [Compound 167, (S)-2-(4-(4-chlorophenyl)-3,9-dimethyl-2-((1-methyl-1H-pyrazol-4-yl)ethynyl)-6H-thieno[3,2-f][1,2,4]triazolo[4,3-a][1,4]diazepin-6-yl)-N-ethylacetamide], for which the IC50 in data set [2] (setting [5]) turned out to be 26.7 nM. Further, the IC50 in data set [3] (setting [6]) turned out to be 129 ± 40 nM. In data set [1], this molecule returned a concentration at 1 h of 12 ng/mL, a concentration at 3 h of under 1 ng/mL and a concentration at 6 h of under 1 ng/mL.

As for `Cc1c(C#Cc2cncn2C)sc2c1C(c1ccc(Cl)cc1)=N[C@@H](CC(N)=O)c1nnc(C)n1-2` [Compound 168, (S)-2-(4-(4-chlorophenyl)-3,9-dimethyl-2-((1-methyl-1H-imidazol-5-yl)ethynyl)-6H-thieno[3,2-f][1,2,4]triazolo[4,3-a][1,4]diazepin-6-yl)acetamide], the IC50 in data set [2] (setting [5]) stood at 145 nM. Also, the IC50 in data set [3] (setting [6]) is 716 ± 162 nM. In data set [1], this molecule had a concentration at 1 h of 80 ng/mL, a concentration at 3 h of 22 ng/mL and a concentration at 6 h of 20 ng/mL.

As to `CCNC(=O)C[C@@H]1N=C(c2ccc(Cl)cc2)c2c(sc(C#Cc3cncn3C)c2C)-n2c(C)nnc21` [Compound 169, (S)-2-(4-(4-chlorophenyl)-3,9-dimethyl-2-((1-methyl-1H-imidazol-5-yl)ethynyl)-6H-thieno[3,2-f][1,2,4]triazolo[4,3-a][1,4]diazepin-6-yl)-N-ethylacetamide], the IC50 in data set [2] (setting [5]) turned out to be 63.9 nM. Also, the IC50 in data set [3] (setting [6]) is 203 ± 57 nM. In data set [1], this molecule displayed a concentration at 1 h of 611 ng/mL, a concentration at 3 h of 29 ng/mL and a concentration at 6 h of 5 ng/mL.

As for `COCC#Cc1sc2c(c1C)C(c1ccc(Cl)cc1)=N[C@@H](C)c1nnc(C)n1-2` [Cpd. No. 15, (S)-4-(4-chlorophenyl)-2-(3-methoxyprop-1-yn-1-yl)-3,6,9-trimethyl-6H-thieno[3,2-f][1,2,4]triazolo[4,3-a][1,4]diazepine], the IC50 was 11.3 nM in data set [4], 25.6 nM in data set [2] (setting [7]) and 51.1 nM in data set [3] (setting [8]).

As for `Cc1c(C#CCN(C)C)sc2c1C(c1ccc(Cl)cc1)=N[C@@H](C)c1nnc(C)n1-2` [Cpd. No. 16, (S)-3-(4-(4-chlorophenyl)-3,6,9-trimethyl-6H-thieno[3,2-f][1,2,4]triazolo[4,3-a][1,4]diazepin-2-yl)-N,N-dimethylprop-2-yn-1-amine], the values for the IC50 in data set [4], in data set [2] (setting [7]) and in data set [3] (setting [8]) were 58.9 nM, 27.9 nM and 40.9 nM, respectively.

Consider `Cc1c(C#Cc2ccnn2C)sc2c1C(c1ccc(Cl)cc1)=N[C@@H](C)c1nnc(C)n1-2` [Cpd. No. 17, (S)-4-(4-chlorophenyl)-3,6,9-trimethyl-2-((1-methyl-1H-pyrazol-5-yl)ethynyl)-6H-thieno[3,2-f][1,2,4]triazolo[4,3-a][1,4]diazepine], for which the IC50 was determined as 14.4 nM in data set [4], 23.7 nM in data set [2] (setting [7]) and 14.6 nM in data set [3] (setting [8]).

For the molecule `Cc1c(C#Cc2ccc(N)nc2)sc2c1C(c1ccc(Cl)cc1)=N[C@@H](C)c1nnc(C)n1-2` [Cpd. No. 18, (S)-5-((4-(4-chlorophenyl)-3,6,9-trimethyl-6H-thieno[3,2-f][1,2,4]triazolo[4,3-a][1,4]diazepin-2-yl)ethynyl)pyridin-2-amine], the IC50 in data set [4] is 8.84 nM; in data set [2] (setting [7]) it was 9.63 nM; in data set [3] (setting [8]) it was 2.44 nM.
